{"source": "patent US20250073209A1", "about": "“COVALENT TARGETING OF RhoA FOR CANCER THERAPY” (The University of Hong Kong, priority 2023, published 2025)", "key": {"HT29 cells": {"system": "HT29 cells", "test": "Transwell (Matrigel) invasion assay", "type": "cell-based, human", "settings": "HT29, 24 h"}, "[1]": {"system": "HCT116, HT29 and SW620 cells", "test": "Immunoblotting of cell cycle checkpoint proteins", "type": "cell-based, human", "settings": "HCT116, HT29 and SW620, 24 h", "method": "Anti-RhoA (#2117), anti-GAPDH (#2118), anti-phosphoMLC (#3671), anti-MLC (#3672), anti-FLAG (#8146), anti-GFP (#2956), and anti-GST (#2624) were purchased from Cell Signaling Technology. Cells were washed with PBS and then harvested using cell lysis buffer (1% Triton X100, 10 mM beta glycerol phosphate, 10 mM sodium pyrophosphate, 40 mM HEPES, 4 mM EDTA, pH7.4) with 4% protease/phosphatase inhibitor cocktail (Pierce). Protein samples were quantified using BCA assays (Pierce), normalized and then boiled with 4× Laemmli sampling buffer in 95° C. for 5 mins. Samples were resolved in 10% polyacrylamide gel (Biorad) and then transferred onto PVDF membrane (Biorad) and blocked with blocking buffer (5% bovine serum albumin (BSA) in Tris-buffered saline with 0.1% Tween 20 (TBST)) for 1 h. Membrane was washed in TBST, followed by incubation with corresponding primary antibodies (diluted 1:1000 in 5% BSA/milk in TBST with 1% NaN3) overnight at 4° C. […]\nThe effects of CL16 treatment on cell cycle checkpoint proteins were investigated with immunoblotting of the cell cycle checkpoint proteins in SW620 and HT29 cells after CL16 treatment for 24 h. […] Caspase- 3/7 Green Detection Reagent was used to study apoptosis in HCT116 cells treated with Rhosin by confocal fluorescence imaging. […]"}, "orthotopic SL4 CRC": {"system": "orthotopic SL4 CRC", "test": "Immunocompetent orthotopic mouse CRC model (SL4 intracecal)", "type": "in vivo", "description": "FIG. 13B is a graph showing the weight of tumors from the mice treated with vehicle (n=7) or CL16 (n=8) at the end point of the investigation of CL16 treatment. FIGS. 13C-13H are graphs showing the scores of the immunohistochemistry staining of CD3 (FIG. 13C), CD4 (FIG. 13D), CD8 (FIG. 13E), Ki67 (FIG. 13F), cleaved caspase-3 (FIG. 13G) and VEGFR2 (FIG. 13H) on tumor tissues from the vehicle- or CL16-treated mice, FIG. 131 is a graph showing the changes in the body weight of mice with orthotopic SL4 CRC model treated with solvent vehicle or CL16 through i.p. injection. Antitumor effects of CL16 in an immunocompetent, orthotopic mouse CRC model, which was established by the inoculation of mouse CRC cells, SL4, intracecally were examined (FIG. 20). […] Immunohistochemistry staining of CD3, CD4, CD8, Ki67 was conducted, with cleaved caspase-3 and VEGFR2 on tumor tissues from the vehicle- or CL16-treated mice. […] To the best of our knowledge, this is the first reported study showing an increase in immunity through RhoA inhibition in CRC cells by a small molecule compound."}, "CRC xenografts": {"system": "CRC xenografts", "test": "H&E and immunohistochemistry on tissues of nude mice with CRC xenografts", "type": "in vivo, mouse", "description": "FIGS. 14A and 14B are graphs showing immunohistochemistry staining scores for the images of H&E and immunohistochemistry staining of Ki67 (FIG. 14A) and cleaved caspase-3 staining (FIG. 14B) of tumor tissues from the vehicle- or CL16-treated mice. FIGS. 14C and 14D are graphs showing immunohistochemistry staining scores for the images of H&E, Ki67 (FIG. 14C) and cleaved caspase-3 (FIG. 14D) staining of tumor tissues from the vehicle- or CL16-treated mice with HT29 xenografts.\nAfter confirming the anticancer properties of CL16 on CRC cells and RhoA Cys16 as its primary molecular target, the anticancer effect of CL16 in vivo was studied."}, "SW620 xenograft": {"system": "SW620 xenograft", "test": "Mouse SW620 xenograft model", "type": "in vivo", "method": "FIG. 7A is a graph showing inhibition of tumor growth by CL16 in mouse HCT116 xenografts through intraperitoneal injection at 10 mg/kg (n=6 per group). FIG. 7B is a graph showing inhibition of tumor growth by CL16 in mouse HT29 xenografts through intraperitoneal injection at 10 mg/kg (n=7). FIG. 7C is a graph showing the body weight of mice with HT29 xenografts throughout the treatment with CL16. FIG. 7D is a graph showing inhibition of tumor growth by CL16 in mouse SW620 xenografts through intraperitoneal injection at 10 mg/kg (n=6 per group). FIG. 7E is a bar graph showing the tumor weight of harvested tumors from the treated mice with SW620 xenografts. FIG. 7F is a graph showing the body weight of mice with SW620 xenografts throughout the treatment with CL16. Statistical analysis using a two-tailed Student's t-test. *P<0.05.\n7-week-old mice with weight around 20 g were inoculated subcutaneously with HCT116 (2×10^6 cells per mouse) or HT29 (3×10^6 cells per mouse) cells, in serum-free RMPI or Matrigel in PBS respectively. […] The tumor volume and body weight of the nude mice were measured throughout the treatment. The tumor volume was calculated by the equation: Volume (mm^3)=1×w^2/2, where 1 and w were the length and width of the tumor. At the end of the treatment, the mice were sacrificed and the tumor weight was measured. […]"}}}
{"smiles": "O=C(CCl)N1N=C(c2cc3ccccc3o2)CC1c1ccco1", "note": "(stereo not drawn) [CL16]", "values": [{"measurement": "cell invasion", "setting": "HT29 cells", "value": "good efficacy in reducing HT29 cell migration and invasion"}, {"measurement": "cyclin A2 and cyclin B1 levels", "setting": "[1]", "value": "no significant changes"}, {"measurement": "p21 and p27 protein levels", "setting": "[1]", "value": "increase in p21 and p27 protein levels"}, {"measurement": "body weight", "setting": "orthotopic SL4 CRC; i.p. injection", "value": "no significant changes in the body weight"}, {"measurement": "tumor weight", "setting": "orthotopic SL4 CRC; i.p. injection, end point", "value": "significantly lower tumor weight"}, {"measurement": "organ damage in kidney tissue", "setting": "orthotopic SL4 CRC; treated mice", "value": "no organ damages in the kidney tissue"}, {"measurement": "Ki67 in tumor tissues", "setting": "orthotopic SL4 CRC; treated vs vehicle", "value": "decrease in Ki67"}, {"measurement": "cleaved caspase-3 immunohistochemistry in tumor tissues", "setting": "orthotopic SL4 CRC; treated vs vehicle", "value": "elevated level"}, {"measurement": "CD3 immunohistochemistry of tumor tissues", "setting": "orthotopic SL4 CRC; tumor tissues", "value": "increases"}, {"measurement": "CD4 immunohistochemistry of tumor tissues", "setting": "orthotopic SL4 CRC; tumor tissues", "value": "increases"}, {"measurement": "CD8 immunohistochemistry of tumor tissues", "setting": "orthotopic SL4 CRC; tumor tissues", "value": "increases"}, {"measurement": "VEGFR2 level, immunohistochemistry", "setting": "orthotopic SL4 CRC; tumor tissues", "value": "decrease in VEGFR2 level"}, {"measurement": "tumor metastasis to liver", "setting": "orthotopic SL4 CRC; vs control mice", "value": "prohibited the tumor metastasis"}, {"measurement": "H&E staining of major organs", "setting": "CRC xenografts; CL16-treated mice", "value": "no observable damages on major organs"}, {"measurement": "Ki67 immunohistochemistry on tumor tissues", "setting": "CRC xenografts; CL16-treated vs solvent", "value": "reduction in Ki67"}, {"measurement": "cleaved caspase-3 level in tumor tissues", "setting": "CRC xenografts; CL16-treated vs vehicle", "value": "elevated cleaved caspase-3 level"}, {"measurement": "body weight, treated vs untreated", "setting": "SW620 xenograft; SW620 xenografts, FIG. 7F", "value": "no observable difference"}, {"measurement": "tumor growth vs vehicle control", "setting": "SW620 xenograft; nude mice, 10 mg/kg intraperitoneal", "value": "significantly inhibited tumor growth"}]}
